Source: publication PMC8286840, “Identifying SARS-CoV-2 antiviral compounds by screening for small molecule inhibitors of Nsp3 papain-like protease” (Biochemical Journal, 2021)
Where a name gives a salt, the structure may show the parent alone. Read-outs that look alike come from different tables or passages of the source. Where a SMILES comes first, the peptide text is derived from it. [ ]: non-standard residue; d: D form. pGlu = O=C1CC[C@@H](C(=O)O)N1; Thz = O=C(O)[C@@H]1CSCN1

Legend:
[1] = molecular target: T1, SARS-CoV-2 PLpro (nsp3 1564–1878) (Severe acute respiratory syndrome coronavirus 2, UniProt P0DTD1); assay: biochemical; design: FRET-quenched peptide (Pro3) cleavage by PLpro, 10 min pre-incubation, slope over 20 min, normalised to no-compound control; details: read-out: % of control remaining
[2] = molecular target: T1, SARS-CoV-2 PLpro (nsp3 1564–1878); assay: biochemical; design: FRET-quenched peptide (Pro3) cleavage by PLpro, 10 min pre-incubation, slope over 20 min, normalised to no-compound control; details: read-out: % of control remaining; remark: listed apart in the source

SMILES: O=C1CCN(c2ccccc2)N1 [Phenidone]
- remaining activity at 1.25 µM ([1]; Well no.=3951, low concentration screen): 103%
- remaining activity at 3.75 µM ([2]; Well no.=3951, high concentration screen): 101%

SMILES: CN(C)CCC(c1ccccc1)c1ccccn1 (stereo not shown) [Pheniramine (Maleate)]
- remaining activity at 1.25 µM ([1]; Well no.=6799, low concentration screen): 99.4%
- remaining activity at 3.75 µM ([2]; Well no.=6799, high concentration screen): 90%

SMILES: CC(COc1ccccc1)N(CCCl)Cc1ccccc1 (stereo not shown) [Phenoxybenzamine (hydrochloride)]
- remaining activity at 1.25 µM ([1]; Well no.=6797, low concentration screen): 99.8%
- remaining activity at 3.75 µM ([2]; Well no.=6797, high concentration screen): 93.2%

SMILES: CC(COc1ccccc1)N(CCCl)Cc1ccccc1 (stereo not shown) [Phenoxybenzamine hydrochloride]
- remaining activity at 1.25 µM ([1]; Well no.=371, low concentration screen): 95.1%
- remaining activity at 3.75 µM ([2]; Well no.=371, high concentration screen): 91.2%

SMILES: CC(COc1ccccc1)N(CCCl)Cc1ccccc1 (stereo not shown) [Phenoxybenzamine.HCl]
- remaining activity at 1.25 µM ([1]; Well no.=1761, low concentration screen): 102%
- remaining activity at 3.75 µM ([2]; Well no.=1761, high concentration screen): 101%

SMILES: CN1CC[C@@]2(C)c3cc(OC(=O)Nc4ccccc4)ccc3N(C)[C@@H]12 [Phenserine]
- remaining activity at 1.25 µM ([1]; Well no.=6093, low concentration screen): 90.2%
- remaining activity at 3.75 µM ([2]; Well no.=6093, high concentration screen): 89.8%

SMILES: Cc1ccc(N(CC2=NCCN2)c2cccc(O)c2)cc1 [Phentolamine (mesylate)]
- remaining activity at 1.25 µM ([1]; Well no.=7326, low concentration screen): 93.7%
- remaining activity at 3.75 µM ([2]; Well no.=7326, high concentration screen): 90%

SMILES: Cc1ccc(N(CC2=NCCN2)c2cccc(O)c2)cc1 [Phentolamine mesylate]
- remaining activity at 1.25 µM ([1]; Well no.=1253, low concentration screen): 104%
- remaining activity at 3.75 µM ([2]; Well no.=1253, high concentration screen): 106%

SMILES: Cc1ccc(N(CC2=NCCN2)c2cccc(O)c2)cc1 [Phentolamine]
- remaining activity at 1.25 µM ([1]; Well no.=1635, low concentration screen): 105%
- remaining activity at 3.75 µM ([2]; Well no.=1635, high concentration screen): 105%

SMILES: NC(Cc1cccc(-c2ccccc2CP(=O)(O)O)c1)C(=O)O (stereo not drawn) [Phenylbenzene-omega-phosphono-alpha-amino acid]
- remaining activity at 1.25 µM ([1]; Well no.=1361, low concentration screen): 100%
- remaining activity at 3.75 µM ([2]; Well no.=1361, high concentration screen): 100%

SMILES: CCCCC1C(=O)N(c2ccccc2)N(c2ccccc2)C1=O [Phenylbutazone]
- remaining activity at 1.25 µM ([1]; Well no.=1303, low concentration screen): 102%
- remaining activity at 1.25 µM ([1]; Well no.=2105, low concentration screen): 101%
- remaining activity at 3.75 µM ([2]; Well no.=1303, high concentration screen): 99.3%
- remaining activity at 3.75 µM ([2]; Well no.=2105, high concentration screen): 101%

SMILES: CNC[C@H](O)c1cccc(O)c1 [Phenylephrine hydrochloride]
- remaining activity at 1.25 µM ([1]; Well no.=958, low concentration screen): 101%
- remaining activity at 3.75 µM ([2]; Well no.=958, high concentration screen): 103%

SMILES: C[C@H](N)[C@H](O)c1ccccc1 [Phenylpropanolamine]
- remaining activity at 1.25 µM ([1]; Well no.=2292, low concentration screen): 96.7%
- remaining activity at 3.75 µM ([2]; Well no.=2292, high concentration screen): 97.2%

SMILES: O=C1N=C(O)NC1(c1ccccc1)c1ccccc1 [Phenytoin sodium]
- remaining activity at 1.25 µM ([1]; Well no.=403, low concentration screen): 104%
- remaining activity at 3.75 µM ([2]; Well no.=403, high concentration screen): 104%

SMILES: O=C1NC(=O)C(c2ccccc2)(c2ccccc2)N1 [Phenytoin]
- remaining activity at 1.25 µM ([1]; Well no.=1643, low concentration screen): 99.6%
- remaining activity at 3.75 µM ([2]; Well no.=1643, high concentration screen): 100%

SMILES: CCn1c2ccccc2c2cc(CNC)ccc21 [PhiKan 083]
- remaining activity at 1.25 µM ([1]; Well no.=6830, low concentration screen): 93.5%
- remaining activity at 3.75 µM ([2]; Well no.=6830, high concentration screen): 93.9%

SMILES: O=C(CCc1ccc(O)cc1)c1c(O)cc(O)cc1O [Phloretin]
- remaining activity at 1.25 µM ([1]; Well no.=1397, low concentration screen): 102%
- remaining activity at 1.25 µM ([1]; Well no.=3821, low concentration screen): 95.3%
- remaining activity at 3.75 µM ([2]; Well no.=1397, high concentration screen): 102%
- remaining activity at 3.75 µM ([2]; Well no.=3821, high concentration screen): 94.8%

SMILES: O=C(CCc1ccc(O)cc1)c1c(O)cc(O)cc1O[C@@H]1O[C@H](CO)[C@@H](O)[C@H](O)[C@H]1O [Phlorizine]
- remaining activity at 1.25 µM ([1]; Well no.=3452, low concentration screen): 94.2%
- remaining activity at 3.75 µM ([2]; Well no.=3452, high concentration screen): 97.9%

SMILES: CCCC(=O)O[C@@H]1[C@@H](C)[C@@]2(O)[C@@H](C=C(CO)C[C@]3(O)C(=O)C(C)=C[C@@H]23)[C@@H]2C(C)(C)[C@]12OC(=O)CCC [Phorbol 12,13-dibutyrate]
- remaining activity at 1.25 µM ([1]; Well no.=3487, low concentration screen): 97.7%
- remaining activity at 3.75 µM ([2]; Well no.=3487, high concentration screen): 100%

SMILES: CCCCCCCCCCCCCC(=O)O[C@@H]1[C@@H](C)[C@@]2(O)[C@@H](C=C(CO)C[C@]3(O)C(=O)C(C)=C[C@@H]23)[C@@H]2C(C)(C)[C@]12OC(C)=O [Phorbol 12-myristate 13-acetate]
- remaining activity at 1.25 µM ([1]; Well no.=1493, low concentration screen): 101%
- remaining activity at 1.25 µM ([1]; Well no.=3078, low concentration screen): 102%
- remaining activity at 3.75 µM ([2]; Well no.=1493, high concentration screen): 97.5%
- remaining activity at 3.75 µM ([2]; Well no.=3078, high concentration screen): 105%

SMILES: C[C@@H]1O[C@@H]1P(=O)(O)O [Phosphomycin disodium]
- remaining activity at 1.25 µM ([1]; Well no.=1148, low concentration screen): 96.5%
- remaining activity at 3.75 µM ([2]; Well no.=1148, high concentration screen): 93.1%

SMILES: O=C(O)CP(=O)(O)O [Phosphonoacetic acid]
- remaining activity at 1.25 µM ([1]; Well no.=1299, low concentration screen): 101%
- remaining activity at 3.75 µM ([2]; Well no.=1299, high concentration screen): 103%

SMILES: CC(C)C[C@H](NP(=O)(O)O[C@@H]1O[C@@H](C)[C@H](O)[C@@H](O)[C@H]1O)C(=O)N[C@@H](Cc1c[nH]c2ccccc12)C(=O)O [Phosphoramidon disodium]
- remaining activity at 1.25 µM ([1]; Well no.=1398, low concentration screen): 99.4%
- remaining activity at 3.75 µM ([2]; Well no.=1398, high concentration screen): 100%

SMILES: NC(=O)c1ccccc1C(=O)N[C@@H](CCC(=O)O)C(=O)O [Phthalamoyl-L-glutamic acid trisodium]
- remaining activity at 1.25 µM ([1]; Well no.=1409, low concentration screen): 99.3%
- remaining activity at 3.75 µM ([2]; Well no.=1409, high concentration screen): 101%

SMILES: CC(=O)NS(=O)(=O)c1ccc(NC(=O)c2ccccc2C(=O)O)cc1 [Phthalylsulfacetamide]
- remaining activity at 1.25 µM ([1]; Well no.=7356, low concentration screen): 105%
- remaining activity at 3.75 µM ([2]; Well no.=7356, high concentration screen): 100%

SMILES: O=C(O)c1ccccc1C(=O)Nc1ccc(S(=O)(=O)Nc2nccs2)cc1 [Phthalylsulfathiazole]
- remaining activity at 1.25 µM ([1]; Well no.=7314, low concentration screen): 97.8%
- remaining activity at 3.75 µM ([2]; Well no.=7314, high concentration screen): 95.3%

SMILES: CCCCCCCCCCCCCC[C@@H](O)[C@@H](O)[C@@H](N)CO [Phytosphingosine]
- remaining activity at 1.25 µM ([1]; Well no.=3082, low concentration screen): 102%
- remaining activity at 3.75 µM ([2]; Well no.=3082, high concentration screen): 103%

SMILES: CCCCN1CCC(CNC(=O)c2c3n(c4ccccc24)CCCO3)CC1 [Piboserod]
- remaining activity at 1.25 µM ([1]; Well no.=7965, low concentration screen): 93.1%
- remaining activity at 3.75 µM ([2]; Well no.=7965, high concentration screen): 93.6%

SMILES: Oc1cc(O)cc(/C=C/c2ccc(O)c(O)c2)c1 [Piceatannol]
- remaining activity at 1.25 µM ([1]; Well no.=948, low concentration screen): 98.3%
- remaining activity at 1.25 µM ([1]; Well no.=3084, low concentration screen): 107%
- remaining activity at 1.25 µM ([1]; Well no.=3939, low concentration screen): 105%
- remaining activity at 3.75 µM ([2]; Well no.=948, high concentration screen): 92.7%
- remaining activity at 3.75 µM ([2]; Well no.=3084, high concentration screen): 98.8%
- remaining activity at 3.75 µM ([2]; Well no.=3939, high concentration screen): 102%

SMILES: COc1ccc(C(=O)NCc2cccnc2)cc1C(=O)NCc1cccnc1 [Picotamide]
- remaining activity at 1.25 µM ([1]; Well no.=1351, low concentration screen): 102%
- remaining activity at 1.25 µM ([1]; Well no.=2202, low concentration screen): 88.9%
- remaining activity at 3.75 µM ([2]; Well no.=1351, high concentration screen): 102%
- remaining activity at 3.75 µM ([2]; Well no.=2202, high concentration screen): 90.3%

SMILES: COc1cc([C@@H]2c3cc4c(cc3[C@H](O)[C@H]3COC(=O)[C@@H]23)OCO4)cc(OC)c1OC [Picropodophyllin]
- remaining activity at 1.25 µM ([1]; Well no.=3341, low concentration screen): 95.7%
- remaining activity at 3.75 µM ([2]; Well no.=3341, high concentration screen): 98.4%

SMILES: C=C(C)[C@@H]1[C@H]2OC(=O)[C@@H]1[C@]1(O)C[C@H]3O[C@]34C(=O)O[C@H]2[C@]14C [Picrotoxinin]
- remaining activity at 1.25 µM [1]: 101%
- remaining activity at 3.75 µM [2]: 101%

SMILES: O=C1CC[C@@H](C(=O)N2CSC[C@H]2C(=O)O)N1 [Pidotimod] ([pGlu]-[Thz]-OH)
- remaining activity at 1.25 µM ([1]; Well no.=7508, low concentration screen): 101%
- remaining activity at 3.75 µM ([2]; Well no.=4933, high concentration screen): 105%
- remaining activity at 3.75 µM ([2]; Well no.=7508, high concentration screen): 97.7%
